The term Kd denotes a measure of binding affinity in units of concentration. A low value points to higher affinity. A word on the mortality: it is the share of the test organisms that died. Higher therefore signals fewer survivors.

These results are taken from article PMC8267945, “Plumbagin, a Natural Product with Potent Anticancer Activities, Binds to and Inhibits Dihydroorotase, a Key Enzyme in Pyrimidine Biosynthesis” (International Journal of Molecular Sciences, 2021).

“Also recorded” adds a separate entry of the source.

T1 sequence (P20051 whole entry): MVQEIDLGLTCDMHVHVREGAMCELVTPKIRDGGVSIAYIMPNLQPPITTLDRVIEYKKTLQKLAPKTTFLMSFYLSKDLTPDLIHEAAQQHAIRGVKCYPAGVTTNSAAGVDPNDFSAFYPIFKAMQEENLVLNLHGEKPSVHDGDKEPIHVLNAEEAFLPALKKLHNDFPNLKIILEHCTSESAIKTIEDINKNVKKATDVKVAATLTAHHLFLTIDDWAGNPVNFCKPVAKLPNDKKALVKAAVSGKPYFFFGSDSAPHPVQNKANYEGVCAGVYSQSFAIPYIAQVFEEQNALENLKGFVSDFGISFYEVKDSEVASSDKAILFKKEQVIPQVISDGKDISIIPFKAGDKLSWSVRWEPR

The test system of one series is 4T1 cells. Nature of the series: wound-healing assay. Type of series: cell-based, mouse. The conditions noted are these: 5-FU 5 μM. How it is done: The wound-healing assay was performed to study whether PLU can inhibit 4T1 cell migration. Briefly, 4T1 cells were seeded in 24-well plates, incubated in serum-reduced medium for 6 h, wounded in a line across the well with a 200 μL pipette tip, and washed twice with the serum-reduced medium. After different treatments, cells were incubated for 24 h to allow migration.
`O=c1[nH]cc(F)c(=O)[nH]1` [5-FU, 5-fluorouracil] displayed a Migration rate of 65%.

In the next series the test system is Plasmodium falciparum.
Test: not given
The conditions noted are these: read-out: concentration giving 50% growth inhibition of parasites; cited from earlier work. Further details: method as in PMID 2675756.
Turning to `O=C(O)c1[nH]c(=O)[nH]c(=O)c1F` [5-FOA, 5-fluoroorotate], the IC50 is 0.006 µM.

In the next series the test system is 4T1 cells. Description: chromatin condensation assay (Hoechst staining). Format: cell-based, mouse. The conditions noted are these: 5-FU 5 μM. Here is the method:
The apoptosis in 4T1 cells was assayed with Hoechst 33342 staining. The 4T1 cells were seeded in 6-well plates at a density of 5 × 10^5 cells per well in a volume of […] of culture medium. Cells were allowed to adhere for 16 h. After different treatments, cells were incubated for an additional 24 h, washed with PBS, stained with the Hoechst dye (1 μg·mL^−1) in the dark at RT for 10 min, and imaged using an inverted fluorescence microscope (Axiovert 200 M; Zeiss Axioplam, Oberkochen, Germany) at excitation and emission wavelengths (λem) of 360 and 460 nm, respectively. The apoptotic index was calculated as follows: apoptotic index = apoptotic cell number/(apoptotic cell number + nonapoptotic cell number).
In turn, `O=c1[nH]cc(F)c(=O)[nH]1` [5-FU, 5-fluorouracil] registered an Apoptotic rate of 26%.

A further series relates to 4T1 cells. Nature of the series: clonogenic formation assay. Type of series: cell-based, mouse. The note with it: 5-FU 5 μM. How it is done:
A clonogenic formation assay was used to assess the 4T1 cell growth to study whether the PLU can inhibit 4T1 cell proliferation. Briefly, 4T1 cells were seeded at a density of 10^3 cells per well into 6-well plates and incubated overnight for attachment. After different treatments, plates were incubated for 5–7 days to allow clonogenic growth. After washing with PBS, colonies were fixed with methanol and stained with 0.5% crystal violet for 20 min, and the number of colonies was counted under a light microscope.
`O=c1[nH]cc(F)c(=O)[nH]1` [5-FU, 5-fluorouracil] returned a Colony count of 54%.

A further series addresses T1, ScDHOase (Saccharomyces cerevisiae, UniProt P20051).
T1 construct: made in house; host or cells: E. coli BL21(DE3)
Description: fluorescence quenching binding assay.
Conditions: not given
How it is done: Figure 7 The data used to calculate the Kd values of various DHOases. (A) The fluorescence emission spectra of ScDHOase with PLU of different concentrations (0–200 μM; 0, 10, 20, 50, 75, 100, 125, 150, 175, and 200 μM). The decrease in intrinsic fluorescence of protein was measured at 324 nm upon excitation at 280 nm with a spectrofluorometer. […] (B) The fluorescence emission spectra of huDHOase with PLU of different concentrations (0–200 μM). (C) The fluorescence emission spectra of StDHOase with PLU of different concentrations. (D) The fluorescence emission spectra of ScDHOase–R18A with PLU of different concentrations. (E) The fluorescence emission spectra of ScDHOase–T106A with PLU of different concentrations. […] (F) An aliquot amount of PLU was added to the enzyme solution to determine the Kd. The Kd was obtained by the following equation: ΔF = ΔFmax − Kd(ΔF/[PLU]). Data points are an average of 2–3 determinations within a 10% error.
The decrease in the intrinsic fluorescence of DHOase was measured with a spectrofluorometer (Hitachi F-2700; Hitachi High-Technologies, Japan). The Kd was obtained using the following equation: ΔF = ΔFmax − Kd(ΔF/[PLU]).
The Kd value of the purified DHOase was determined using the fluorescence quenching method as previously described for DHOase, DHPase, and DnaB helicase. Briefly, an aliquot of the compound was added into the solution containing DHOase (1 μM) and 50 mM HEPES at pH 7.0. The decrease in the intrinsic fluorescence of DHOase was measured at 324 nm upon excitation at 280 nm and 25 °C with a spectrofluorometer (Hitachi F-2700; Hitachi High-Technologies, Japan). The Kd was obtained using the following equation: ΔF = ΔFmax − Kd(ΔF/[PLU]).
Turning to `O=C(O)c1cc(=O)[nH]c(=O)[nH]1` [orotic acid], the affinity, expressed as Kd, was 198.3 ± 1.2 µM.

The series is the same for the next values; noted with them: 200 μM compound; 324 nm, excitation 280 nm.
As to `CC(=O)NCCc1cnc[nH]1` [N-ω-acetylhistamine], the “quenching of the intrinsic fluorescence of ScDHOase” value (“quenching” below) is recorded as 2.8%.
Still for that read-out and setting: to `O=C(O)c1[nH]c(=O)[nH]c(=O)c1F` [5-FOA, 5-fluoroorotate] belongs 78.2%.
With `O=C1CCC(C(=O)O)NC(=O)N1` (stereo not shown) [DDCA, 2,7-dioxo-1,3-diazepane-4-carboxylic acid], the “quenching” value stood at 3.0%.
In the case of `N=C1NC(=O)CC(C(=O)O)S1` (stereo not shown) [ITCA, 2-imino-4-oxo-1,3-thiazinane-6-carboxylic acid], the “quenching” value is 15.6%.
Still for that read-out and setting: with `O=C(O)CC(O)C(=O)O` (stereo not shown) [malate] the figure was 10.9%; with `Nc1n[nH]c(N)n1` [3,5-diamino-1,2,4-triazole], 3.9%.
As to `CSc1nnn[nH]1` [5-methylthio-1H-tetrazole], the “quenching” value came to 2.3%.
For the compound `O=C(O)c1cc(=O)[nH]c(=O)[nH]1` [orotic acid], the “quenching” value is given as 65.9%.
With `CC(=O)NO` [Acetohydroxamate], the “quenching” value was 2.5%.
Turning to `O=C(O)CC1NC(=O)NC1=O` (stereo not shown) [5-HAA, 5-hydantoinacetic acid], the “quenching” value is listed as 1.5%.
Same read-out and setting: to `Nc1nc[nH]n1` [3-amino-1,2,4-triazole] belongs 2.8%.

A further series addresses T2, huDHOase (Homo sapiens, UniProt P27708).
T2 construct: huDHOase1456-1846-NdeI-N; made in house; host or cells: E. coli BL21(DE3)
T2 sequence (P27708 1456-1846): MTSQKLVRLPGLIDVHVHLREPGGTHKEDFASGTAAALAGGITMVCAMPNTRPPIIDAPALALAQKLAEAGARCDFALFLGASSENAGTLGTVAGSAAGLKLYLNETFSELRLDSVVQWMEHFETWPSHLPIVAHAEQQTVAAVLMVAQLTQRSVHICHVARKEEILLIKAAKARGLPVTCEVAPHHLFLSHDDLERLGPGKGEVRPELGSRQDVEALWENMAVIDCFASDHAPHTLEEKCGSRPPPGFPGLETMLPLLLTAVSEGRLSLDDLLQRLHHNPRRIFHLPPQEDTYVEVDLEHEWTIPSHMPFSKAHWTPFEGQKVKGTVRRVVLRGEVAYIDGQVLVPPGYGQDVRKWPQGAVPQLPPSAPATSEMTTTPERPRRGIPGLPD
Nature of the series: rapid spectrophotometric DHOase enzyme assay (hydrolysis of DHO). Format: biochemical. The note with it: 200 μM compound in the standard assay. Here is the method: A rapid spectrophotometric assay was used to determine the activity of DHOase. Briefly, the hydrolysis of DHO was measured at 25 °C as the decrease in absorbance at 230 nm. The purified DHOase was added to a 2 mL solution containing 0.5 mM DHO and 100 mM Tris–HCl at pH 8.0 to start the reaction. […] The hydrolysis of DHO was monitored using a UV/Vis spectrophotometer (Hitachi U 3300; Hitachi High-Technologies, Tokyo, Japan). A unit of activity was defined as the amount of enzyme catalyzing the hydrolysis of 1 μmol DHO/min, and the specific activity was expressed in terms of units of activity per mg of enzyme. The kinetic parameters Km and Vmax were determined from a nonlinear plot by fitting the hydrolyzing rate from individual experiments to the Michaelis–Menten equation (Enzyme Kinetics module of Sigma-Plot; Systat Software, Chicago, IL, USA).
In the case of `O=C(O)c1[nH]c(=O)[nH]c(=O)c1F` [5-FOA, 5-fluoroorotate], the “decrease of the activity of huDHOase” value was determined as 26%.
Turning to `N=C1NC(=O)CC(C(=O)O)S1` (stereo not shown) [ITCA, 2-imino-4-oxo-1,3-thiazinane-6-carboxylic acid], the “decrease of the activity of huDHOase” value is 12%.
As for `O=C(O)CC(O)C(=O)O` (stereo not shown) [malate], the “decrease of the activity of huDHOase” value was 6%.

The same series, now with this note: 200 μM for the compounds of Figure 2; AZT concentration not given.
As to `Nc1c[nH]c(=O)[nH]c1=O` [5-AU, 5-aminouracil], the “inhibition of huDHOase (in words)” value is given as “did not inhibit the activity of huDHOase”.
On the same count and under the same terms, to `CC(=O)NCCc1cnc[nH]1` [N-ω-acetylhistamine] belongs “None of these compounds decreased the activity of huDHOase”; to `Cc1cn([C@H]2C[C@H](N=[N+]=[N-])[C@@H](CO)O2)c(=O)[nH]c1=O` [AZT], “did not inhibit the activity of huDHOase”; to `O=C1CCC(C(=O)O)NC(=O)N1` (stereo not shown) [DDCA, 2,7-dioxo-1,3-diazepane-4-carboxylic acid], “did not inhibit huDHOase”.
On the same count and under the same terms, with `O=c1[nH]cc(F)c(=O)[nH]1` [5-FU, 5-fluorouracil] the entry was “did not inhibit the activity of huDHOase; also recorded: cannot inhibit DHOase”; with `Nc1n[nH]c(N)n1` [3,5-diamino-1,2,4-triazole], “None of these compounds decreased the activity of huDHOase”; with `CSc1nnn[nH]1` [5-methylthio-1H-tetrazole], “None of these compounds decreased the activity of huDHOase”.
Same read-out and setting: with `O=C(O)CC1NC(=O)NC1=O` (stereo not shown) [5-HAA, 5-hydantoinacetic acid] the entry was “did not inhibit huDHOase”; with `Nc1nc[nH]n1` [3-amino-1,2,4-triazole], “None of these compounds decreased the activity of huDHOase”.

In the next series the target is T1, ScDHOase.
Test: not given
The conditions noted are these: cited from earlier work.
Regarding `Nc1c[nH]c(=O)[nH]c1=O` [5-AU, 5-aminouracil], the “λmax of ScDHOase emission (red shift)” value is listed as “from 324 to 335.5”.
On to `O=c1[nH]cc(F)c(=O)[nH]1` [5-FU, 5-fluorouracil], for which the “λmax of ScDHOase emission (red shift)” value is “from 324 to 335.5”.

Tested on in another series: not listed separately
Nature of the series: in vitro. Type of series: cell-based, mouse. The note with it: mouse. Here is the method: The 4T1 cells (1 × 10^4) were incubated with PLU in a 100 μL volume. After 24 h, the anticancer potentiality was estimated.
With `O=c1[nH]cc(F)c(=O)[nH]1` [5-FU, 5-fluorouracil], the mortality at 24 h, 5 μM turned out to be 27%.
